Measured values from US20070033677A1, “Plant sHSP gene bidirectional promoter and uses thereof” (National Taiwan University, priority 2005, published 2007).

How the values were obtained:
Oshsp17.3 promoter = test: Transient expression GUS activity assay, Oshsp17.3 promoter::GUS construct bombarded to rice coleoptiles; format: cell-based, Rice (Oryza sativa L. cv. Tainung No. 67); settings: 5 mM Aze, 4 hours treatment; GUS normalized against luciferase internal control; FIG. 3A
Procedure: (§1) The coleoptile of a etiolated rice seedling was cut from embryonic root and positioned on the middle of a 10-cm Petri dish containing MS salts supplemented with 0.6% (w/v) agarose and 3% (w/v) sucrose. The mixture (in a 1:1 molar ratio) of a test DNA construct and a maize ubiquitin-luciferase internal control construct were coated onto the gold particles as follows: under continuous vortexing, the following were added in order to each […] of 3 mg gold particles (Shen et al., 1996): 5 μL of DNA (1 μg DNA), 10 μL of 2.5 M CaCl2, and 4 μL of 0.1 M spermidine (free-based, tissue-culture grade). Gold microcarriers (1.6-μm particle size, 30 mg) in a microcentrifuge tube were vortexed with […] 70% (v/v) ethanol for 3˜5 minutes and kept till precipitation for about 15 minutes. Then, after centrifuging for 5 seconds, the supernatant was discarded and washed three times with 1 ml of sterile de-ionized water. The gold particles were resuspended in 500 μL 50% (w/v) glycerol, and then dispensed in 50-μL aliquots (3 mg/50 μL) kept in −20° C. The gold particles coated with DNA were pelleted in an bench-top Eppendorf centrifuge at maximum speed for 5 seconds, discarded the supernatant, washed once with 70% (v/v) ethanol following by absolute ethanol, and resuspended in 20 μL absolute ethanol. […]

Oshsp18.0 promoter = test: Transient expression GUS activity assay, Oshsp18.0 promoter::GUS construct bombarded to rice coleoptiles; format: cell-based, Rice (Oryza sativa L. cv. Tainung No. 67); settings: 5 mM Aze, 4 hours treatment; GUS normalized against luciferase internal control; FIG. 3A
Procedure: as §1

[1] = test system: bidirectional promoter of SEQ ID NO:5; settings: 5% ethanol treatment; control coleoptiles under 28° C.; FIG. 3B
Procedure: as §1

O=C(O)C1CCN1 (stereo not drawn) [Aze]
induction of promoter (normalized GUS activity) (Oshsp17.3 promoter): at least 7 fold
induction of promoter (normalized GUS activity) (Oshsp18.0 promoter): at least 7 fold

CCO [ethanol]
expression of reporter gene (GUS staining) [1]: much more amount of reporter gene
